# According to patent US20140087944A1, “COMPOSITIONS AND METHODS FOR ENHANCING PLANT GROWTH” (NOVOZYMES BIOAG A/S, priority 2012, published 2014):
# Legend:
# Assay type in all cases: in vivo
# soybean [1] = assay: Performance of rhizobial inoculants for soybean seeds, pod yield (Example 10)
# Experimental: The effect of gluconolactone on the performance of rhizobial inoculants for soybean seeds was evaluated to see if soybean production could be enhanced. 1 mg/L of gluconolactone was added to rhizobial inoculants products Cell-Tech® and Optimize-400® (both from Novozymes Biologicals Inc.). Seed treatments were performed following the instruction cited in the product labels. The total liquid dose going onto soybean seeds was maintained the same when gluconolactone was added. Control seeds were treated with water. About 100 g seed was treated in a clear plastic bag (25 cm×25 cm) with treatment solutions. Seeds were planted 2 hours after treatment in […] containing Fafard soilless mix in greenhouse. 3 plants were allowed to grow per pot and there were 5 pots per treatment. Pods were harvested 6 weeks after planting.
# yellow pea seedlings = assay: Growth of seedlings in water-agar medium in test tube (Example 3), pea
# Experimental: (§1) The effect of gluconolactone on growth of seedlings of various crops was examined. Corn, green lentil and yellow pea seeds (100 g) were treated with 1.0 mg/L gluconolactone and control seeds were treated with distilled water according to the protocols of Example 1. After treatments, seeds were allowed to dry overnight. One day after treatment, seeds were placed in 25×150 mm glass test tubes containing 40 ml of 5% water-agar solidified medium. Seeds were placed on the surface of medium in each test tube. Test tubes were then placed in a rack and kept in the lab under diffuse light. As the treated seeds were not sterilized, sterilization of the agar medium was not maintained and the test tubes were kept uncapped. Because of the agar medium being without any sugar, the occurrence of contamination was minimal for up to 10 days. The number of seeds per treatment was 10.
# green lentil seedlings = assay: Growth of seedlings in water-agar medium in test tube (Example 3), lentil
# Experimental: as §1
# soybean [2] = assay: Soybean pod yield in greenhouse, gluconolactone with isoflavonoids (Example 8); settings: for yield increase over Cue®: gluconolactone added with Cue®; for soybean pod yield, Fresh Weight: gluconolactone 1 mg/L, pods harvested after 6 weeks
# Experimental: Cue® is a genistein/daidzein isoflavonoid product available from Novozymes Biologicals, Inc. Cue® is used as a soybean seed treatment and the effect of gluconolactone in combination with flavonoids was evaluated to see if soybean production could be enhanced. Gluconolactone was prepared with Cue®. Daidzein, another isoflavonoid, was similarly prepared with gluconolactone with daidzein having the same isoflavonoid concentration as Cue®.
# About 100 g soybean seeds were treated with 1 mg/L treatment solutions of gluconolactone and 200 μl of CruiserMaxx® Beans (Syngenta) fungicide+170 μl distilled water+30 μl Cue® or daidzein. For control, a total of 200 μl water was used with 200 μl CruiserMaxx® Bean fungicide. One day after seed treatments, seeds were planted in greenhouse in 1 gallon plastic pots containing soilless mix Fafard 3B. There were 3 plants/pot and 4 pots/treatment. Soybean plants were occasionally fertilized with 20-15-20 NPK fertilizer. Pods were harvested after 6 weeks. Average pod fresh weights were analyzed by student-t test using JUMP statistical software.
# lentil seedlings = assay: Stress tolerance of lentil seedlings at 8° C., root growth parameters (Example 11); settings: seven days after plating, 1.0 mg/L gluconolactone, 100 mg/L glutathione, 100 mg/L PADG
# Experimental: The effect of antioxidants on stress tolerance by lentil seedlings at 8° C. was evaluated. Lentil seeds treated with the treatment solutions at 5 ml/kg of seed. […] Treated seeds were plated in large Petri plates on germination paper moistened with deionized water. Plates were incubated at 8° C. in a walk in cold room. Seven days after plating, seedling roots were measured for various growth parameters.
# corn seedlings = assay: Growth of seedlings in water-agar medium in test tube (Example 3), corn
# Experimental: as §1
# corn seedling = assay: Corn seedling root growth after seed treatment, Petri plate germination, WinRhizo root scanner (Examples 1 and 2)
# Experimental: An experiment was performed to determine the effect of gluconolactone on corn seedling root growth parameters. Unsterilized corn seeds (Peterson Hybrid corn 98L90GTCBLL pre-treated with fungicide Acceleron) were treated with water (control) and gluconolactone solutions (1 and 10 mg/L distilled water). In a clear plastic bag (25 cm×25 cm), 100 gram seeds were treated with 500 μl water (for control). Gluconolactone treatments of 1 and 10 mg/L included 250 μl water+250 μl gluconolactone solution with vigorous shaking. Four hours after treatment, 10 seeds were plated in 150 mm×15 mm polystyrene Petri plates (Fisherband) on 5⅜″ germination paper circle (Anchor Paper Co., Saint Paul, Mn) and moistened with 12 ml distilled water. Four Petri plates were prepared per treatment as 4 replicates. Petri plates were then placed in the dark in under-counter cabinets in the lab at 24° C. for 7 days. After 7 days, seedlings were removed from the cabinets, exposed to light, and their main roots severed and measured for various root parameters with WinRhizo root scanner (Regent Instruments Inc., WinRhizo Pro 2007). For all statistical analysis, student t-test was applied using JMPv.9 statistical software.
# An experiment was designed to evaluate if any gluconolactone concentration between 1.0-10 mg/L and below 1.0 mg/L has an optimum effect on influencing seedling root growth. Example 2 was conducted according to the protocols of Example 1. Accordingly, gluconolactone concentrations of 5.0 mg/L, 1.0 mg/L, and 0.5 mg/L, were evaluated.
# [3] = gluconolactone 1 mg/L seed treatment, harvested 10 days after planting
# [4] = gluconolactone 1 mg/L, non-significantly
# [5] = Example 1, GL 1 mg/L seed treatment, main root, 7 days
# [6] = Example 1, GL 1 mg/L seed treatment, main root, 7 days, listed as GL
# [7] = Example 1, GL 10 mg/L seed treatment, main root, 7 days
# [8] = Example 1, GL 10 mg/L seed treatment, main root, 7 days, listed as GL
# [9] = Example 2, GL 0.5 mg/L seed treatment
# [10] = Example 2, GL 1.0 mg/L seed treatment
# [11] = Example 2, GL 5.0 mg/L seed treatment
structure (smiles),measurement,setting,value
"O=C1O[C@H](CO)[C@@H](O)[C@H](O)[C@H]1O [Gluconolactone, gluconolactone]",% increase (dry pod yield),"soybean [1]; 1 mg/L gluconolactone added to Cell-Tech, over Cell-Tech alone",3.36%
same,% increase (dry pod yield),"soybean [1]; 1 mg/L gluconolactone added to Optimize-400, over Optimize-400 alone",4.84%
same,Seedling dry weight,yellow pea seedlings; [3],0.483a g
same,average plant dry biomass higher (than control),yellow pea seedlings; [4],5.0%
same,Seedling dry weight,green lentil seedlings; [3],0.083a* g
same,average plant dry biomass higher (than control),"green lentil seedlings; gluconolactone 1 mg/L, significantly",38.3%
same,yield increase over Cue®,soybean [2]; 1st trial,6%
same,yield increase over Cue®,soybean [2]; 2nd trial,9.7%
same,yield increase over Cue®,soybean [2]; 3rd trial,0.6%
same,yield increase (over daidzein alone),"soybean [2]; gluconolactone added with daidzein, in 2 out of 3 trials",approximately 2.5%
same,No. of lateral roots,lentil seedlings,2.935 ab
same,Seedling Root Length,lentil seedlings,2.895 a cm
same,Surface area,lentil seedlings,0.9457 a cm^2
same,Volume,lentil seedlings,0.02474 a cm^3
same,No. of lateral roots,lentil seedlings; listed as gluconolactone,significantly increased
same,Seedling Root Length,lentil seedlings; listed as gluconolactone,significantly increased
same,Surface area,lentil seedlings; listed as gluconolactone,significantly increased
same,Volume,lentil seedlings; listed as gluconolactone,significantly increased
same,Seedling dry weight,corn seedlings; [3],0.606a g
same,average plant dry biomass higher (than control),corn seedlings; [4],6.3%
same,Diameter,corn seedling; [5],0.940a mm
same,Surface area,corn seedling; [5],significantly higher than control
same,Volume,corn seedling; [5],significantly higher than control
same,Length,"corn seedling; Example 1, GL 1 mg/L seed treatment, main root, 7 days in dark at 24° C.",significantly higher than control
same,Length,"corn seedling; Example 1, GL 1 mg/L seed treatment, main root, 7 days in dark at 24° C., listed as GL",7.108a cm
same,Surface area,corn seedling; [6],2.128a cm^2
same,Volume,corn seedling; [6],0.051a cm^3
same,Diameter,corn seedling; [7],did not show any difference
same,Length,corn seedling; [7],did not show any difference
same,Surface area,corn seedling; [7],did not show any difference
same,Volume,corn seedling; [7],did not show any difference
same,Length,corn seedling; [8],6.282ab cm
same,Surface area,corn seedling; [8],1.748ab cm^2
same,Volume,corn seedling; [8],0.039ab cm^3
same,Diam,corn seedling; [9],1.190a mm
same,Length,corn seedling; [9],6.778ab cm
same,Root Volume,corn seedling; [9],0.076a cm3
same,Diam,corn seedling; [10],1.116b mm
same,Length,corn seedling; [10],optimum dose
same,Root Volume,corn seedling; [10],0.070ab cm3
same,Length,"corn seedling; Example 2, GL 1.0 mg/L seed treatment, listed as GL",7.048a cm
same,Diam,corn seedling; [11],1.149ab mm
same,Length,corn seedling; [11],least effective
same,Root Volume,corn seedling; [11],0.063b cm3
same,Length,"corn seedling; Example 2, GL 5.0 mg/L seed treatment, listed as GL",6.054b cm
"O=c1c(-c2ccc(O)cc2)coc2cc(O)ccc12 [Daidzein, reference compound]","soybean pod yield, Fresh Weight",soybean [2]; 1st trial,36.782 g
same,"soybean pod yield, Fresh Weight",soybean [2]; 2nd trial,36.4 g
same,"soybean pod yield, Fresh Weight",soybean [2]; 3rd trial,32.482 g
